In ChEMBL document CHEMBL4418261, “Pyripyropene derivatives having acat2 inhibiting activity and stable to metabolizing enzymes” (2017):

What was measured:
[1] = biological target: T1, Sterol O-acyltransferase 2 (Mus musculus) (UniProt O88908); assay: Potency index, ratio of PRD-043 IC50 to test compound IC50 for inhibition ACAT2 in mouse hepatic microsome membranes using [1-14C]oleoyl coenzyme A as substrate incubated for 5 mins; format: microsomes
T1 sequence (whole entry): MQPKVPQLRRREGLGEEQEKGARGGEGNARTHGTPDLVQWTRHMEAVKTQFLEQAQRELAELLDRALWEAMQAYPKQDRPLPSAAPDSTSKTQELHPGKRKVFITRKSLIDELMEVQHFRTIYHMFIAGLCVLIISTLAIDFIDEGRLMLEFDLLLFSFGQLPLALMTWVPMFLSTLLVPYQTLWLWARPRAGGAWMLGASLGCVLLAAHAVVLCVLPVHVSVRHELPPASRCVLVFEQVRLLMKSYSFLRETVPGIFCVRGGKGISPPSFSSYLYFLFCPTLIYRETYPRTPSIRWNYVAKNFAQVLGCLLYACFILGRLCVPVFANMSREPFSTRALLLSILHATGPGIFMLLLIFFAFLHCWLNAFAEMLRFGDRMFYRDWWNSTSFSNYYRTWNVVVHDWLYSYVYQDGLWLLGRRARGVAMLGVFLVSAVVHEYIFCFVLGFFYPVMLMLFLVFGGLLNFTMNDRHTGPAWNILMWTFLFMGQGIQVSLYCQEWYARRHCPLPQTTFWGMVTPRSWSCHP

[2] = Half life in Sprague-Dawley rat hepatic microsomes at 6 ug/ml by LC-MS method; format: ADME, Microsome; conditions: liver microsomes

Row | Compound | Ratio IC50 [1] | half-life at 6 ug/ml [2]
1 | Cc1cccc([C@@H]2OC[C@@]3(C)[C@@H]4C[C@H](OC(=O)c5ccc(F)cc5)[C@@]5(C)Oc6cc(-c7cccnc7)oc(=O)c6[C@H](O)[C@@H]5[C@@]4(C)CC[C@@H]3O2)c1 | 10 to 20 | > 540 min
2 | Cc1ccc([C@@H]2OC[C@@]3(C)[C@@H]4C[C@H](OC(=O)c5ccc(F)cc5)[C@@]5(C)Oc6cc(-c7cccnc7)oc(=O)c6[C@H](O)[C@@H]5[C@@]4(C)CC[C@@H]3O2)cc1 | < 20 | > 540 min
3 | COc1cccc(C(=O)O[C@H]2C[C@H]3[C@](C)(COC(C)=O)[C@@H](OC(C)=O)CC[C@]3(C)[C@H]3[C@@H](O)c4c(cc(-c5cccnc5)oc4=O)O[C@]23C)c1 | 1 | > 540 min
4 | CC(=O)OC[C@@]1(C)[C@@H]2C[C@H](OC(=O)c3ccccc3F)[C@@]3(C)Oc4cc(-c5cccnc5)oc(=O)c4[C@H](O)[C@@H]3[C@@]2(C)CC[C@@H]1OC(C)=O |  | < 60 min
5 | CC(C)C(=O)OC[C@@]1(C)[C@@H]2C[C@H](OC(=O)C3CCCCC3)[C@@]3(C)Oc4cc(-c5cccnc5)oc(=O)c4[C@H](O)[C@@H]3[C@@]2(C)CC[C@@H]1OC(=O)C(C)C | 10 to 20 | > 540 min
6 | C[C@@]12CO[C@@H](c3ccccc3F)O[C@H]1CC[C@@]1(C)[C@H]2C[C@H](OC(=O)c2ccc(C#N)cc2)[C@@]2(C)Oc3cc(-c4cccnc4)oc(=O)c3[C@H](O)[C@H]12 | 10 to 20 | > 540 min
7 | Cc1ccc([C@@H]2OC[C@@]3(C)[C@@H]4C[C@H](OC(=O)c5ccc(C#N)cc5)[C@@]5(C)Oc6cc(-c7cccnc7)oc(=O)c6[C@H](O)[C@@H]5[C@@]4(C)CC[C@@H]3O2)cc1 | 10 to 20 | > 540 min
8 | CC(=O)OC[C@@]1(C)[C@@H]2C[C@H](OC(=O)c3ccc(C#N)cc3)[C@@]3(C)Oc4cc(-c5cccnc5)oc(=O)c4[C@H](O)[C@@H]3[C@@]2(C)CC[C@@H]1OC(=O)c1ccccc1 | 10 to 20 | > 540 min
9 | COc1ccccc1[C@@H]1OC[C@@]2(C)[C@@H]3C[C@H](OC(=O)c4ccc(C#N)cc4)[C@@]4(C)Oc5cc(-c6cccnc6)oc(=O)c5[C@H](O)[C@@H]4[C@@]3(C)CC[C@@H]2O1 | 10 to 20 | > 540 min
10 | Cc1cccc([C@@H]2OC[C@@]3(C)[C@@H]4C[C@H](OC(=O)c5ccc(C#N)cc5)[C@@]5(C)Oc6cc(-c7cccnc7)oc(=O)c6[C@H](O)[C@@H]5[C@@]4(C)CC[C@@H]3O2)c1 | < 20 | > 540 min
11 | CCc1ccc(C(=O)O[C@H]2C[C@H]3[C@](C)(COC(C)=O)[C@@H](OC(C)=O)CC[C@]3(C)[C@H]3[C@@H](O)c4c(cc(-c5cccnc5)oc4=O)O[C@]23C)cc1 |  | < 60 min
12 | C[C@@]12CO[C@@H](c3ccccc3)O[C@H]1CC[C@@]1(C)[C@H]2C[C@H](OC(=O)c2ccccc2)[C@@]2(C)Oc3cc(-c4cccnc4)oc(=O)c3[C@H](O)[C@H]12 | 10 to 20 | > 540 min
13 | Cc1cccc(C)c1[C@@H]1OC[C@@]2(C)[C@@H]3C[C@H](OC(=O)c4ccc(C#N)cc4)[C@@]4(C)Oc5cc(-c6cccnc6)oc(=O)c5[C@H](O)[C@@H]4[C@@]3(C)CC[C@@H]2O1 | 10 to 20 | > 540 min
14 | CC(=O)OC[C@@]1(C)[C@@H]2C[C@H](OC(=O)c3cccc(Br)c3)[C@@]3(C)Oc4cc(-c5cccnc5)oc(=O)c4[C@H](O)[C@@H]3[C@@]2(C)CC[C@@H]1OC(C)=O |  | < 60 min
15 | COc1ccc(C(OC)O[C@H]2C[C@H]3[C@]4(C)CO[C@@H](c5ccccc5)O[C@H]4CC[C@]3(C)[C@H]3[C@@H](O)c4c(cc(-c5cccnc5)oc4=O)O[C@]23C)cc1 (some centres not stated) | 10 to 20 | > 540 min
16 | Cc1ccc([C@@H]2OC[C@@]3(C)[C@@H]4C[C@H](OC(=O)c5ccc(C#N)cc5)[C@@]5(C)Oc6cc(-c7cccnc7)oc(=O)c6[C@H](O)[C@@H]5[C@@]4(C)CC[C@@H]3O2)c(C)c1 | 10 to 20 | > 540 min
17 | CC(=O)OC[C@@]1(C)[C@@H]2C[C@H](OC(=O)c3ccc(C)cc3)[C@@]3(C)Oc4cc(-c5cccnc5)oc(=O)c4[C@H](O)[C@@H]3[C@@]2(C)CC[C@@H]1OC(C)=O |  | < 60 min
18 | CC(=O)O[C@H]1C[C@H]2[C@]3(C)CO[C@@H](c4ccccc4)O[C@H]3CC[C@]2(C)[C@H]2[C@@H](O)c3c(cc(-c4cccnc4)oc3=O)O[C@]12C | 10 to 20 | > 540 min
19 | CC(=O)OC[C@@]1(C)[C@@H]2C[C@H](OC(C)=O)[C@@]3(C)Oc4cc(-c5cccnc5)oc(=O)c4[C@H](O)[C@@H]3[C@@]2(C)CC[C@@H]1OC(C)=O |  | < 60 min

Row | Compound | Ratio IC50 [1] | half-life at 6 ug/ml [2]
20 | C[C@]1(COC(=O)c2ccccc2)[C@@H]2C[C@H](OC(=O)c3ccc(C#N)cc3)[C@@]3(C)Oc4cc(-c5cccnc5)oc(=O)c4[C@H](O)[C@@H]3[C@@]2(C)CC[C@@H]1OC(=O)c1ccccc1 | 10 to 20 | > 540 min
21 | CC(C)C(=O)OC[C@@]1(C)[C@@H]2C[C@H](OC(=O)c3ccc(C#N)cc3)[C@@]3(C)Oc4cc(-c5cccnc5)oc(=O)c4[C@H](O)[C@@H]3[C@@]2(C)CC[C@@H]1OC(=O)C(C)C | 0.1 to 1 | > 540 min
22 | C[C@@]12CO[C@@H](c3cccc4ccccc34)O[C@H]1CC[C@@]1(C)[C@H]2C[C@H](OC(=O)c2ccc(C#N)cc2)[C@@]2(C)Oc3cc(-c4cccnc4)oc(=O)c3[C@H](O)[C@H]12 | 10 to 20 | > 540 min
23 | CCCCCC(=O)OC[C@@]1(C)[C@@H]2C[C@H](OC(=O)c3ccc(C#N)cc3)[C@@]3(C)Oc4cc(-c5cccnc5)oc(=O)c4[C@H](O)[C@@H]3[C@@]2(C)CC[C@@H]1OC(=O)CCCCC | 10 to 20 | > 540 min
24 | CC(=O)O[C@H]1CC[C@@]2(C)[C@@H](C[C@H](OC(C)=O)[C@@]3(C)Oc4cc(-c5cccnc5)oc(=O)c4[C@H](O)[C@H]23)[C@]1(C)COC(=O)c1ccccc1 | 10 to 20 | > 540 min
25 | CC(C)C(=O)OC[C@@]1(C)[C@@H]2C[C@H](OC(=O)c3ccc([N+](=O)[O-])cc3)[C@@]3(C)Oc4cc(-c5cccnc5)oc(=O)c4[C@H](O)[C@@H]3[C@@]2(C)CC[C@@H]1OC(=O)C(C)C | 10 to 20 | > 540 min
26 | Cc1ccccc1[C@@H]1OC[C@@]2(C)[C@@H]3C[C@H](OC(=O)c4ccc(F)cc4)[C@@]4(C)Oc5cc(-c6cccnc6)oc(=O)c5[C@H](O)[C@@H]4[C@@]3(C)CC[C@@H]2O1 | 10 to 20 | > 540 min
27 | C[C@@]12CO[C@@H](c3ccccc3F)O[C@H]1CC[C@@]1(C)[C@H]2C[C@H](OC(=O)c2ccc(F)cc2)[C@@]2(C)Oc3cc(-c4cccnc4)oc(=O)c3[C@H](O)[C@H]12 | 10 to 20 | > 540 min
28 | C[C@@]12CO[C@@H](c3ccccc3)O[C@H]1CC[C@@]1(C)[C@H]2C[C@H](OC(=O)C2CCCCC2)[C@@]2(C)Oc3cc(-c4cccnc4)oc(=O)c3[C@H](O)[C@H]12 | 10 to 20 | > 540 min
29 | CC(=O)O[C@H]1CC[C@@]2(C)[C@@H](C[C@H](OC(=O)c3ccc(C#N)cc3)[C@@]3(C)Oc4cc(-c5cccnc5)oc(=O)c4[C@H](O)[C@H]23)[C@]1(C)COC(=O)C(C)C | 10 to 20 | > 540 min
30 | Cc1ccc([C@@H]2OC[C@@]3(C)[C@@H]4C[C@H](OC(=O)c5ccc(F)cc5)[C@@]5(C)Oc6cc(-c7cccnc7)oc(=O)c6[C@H](O)[C@@H]5[C@@]4(C)CC[C@@H]3O2)c(C)c1 | 10 to 20 | > 540 min
31 | CC(=O)OC[C@@]1(C)[C@@H]2C[C@H](OC(=O)C3CCCCC3)[C@@]3(C)Oc4cc(-c5cccnc5)oc(=O)c4[C@H](O)[C@@H]3[C@@]2(C)CC[C@@H]1OC(C)=O |  | < 60 min
32 | CN(C)c1ccc([C@@H]2OC[C@@]3(C)[C@@H]4C[C@H](OC(=O)c5ccc(C#N)cc5)[C@@]5(C)Oc6cc(-c7cccnc7)oc(=O)c6[C@H](O)[C@@H]5[C@@]4(C)CC[C@@H]3O2)cc1 | < 20 | > 540 min
33 | CC(=O)OC[C@@]1(C)[C@@H]2C[C@H](OC(=O)c3ccccc3C)[C@@]3(C)Oc4cc(-c5cccnc5)oc(=O)c4[C@H](O)[C@@H]3[C@@]2(C)CC[C@@H]1OC(C)=O |  | < 60 min
34 | CC(=O)O[C@H]1C[C@H]2[C@](C)(COC(=O)C(C)C)[C@@H](OC(=O)C(C)C)CC[C@]2(C)[C@H]2[C@@H](O)c3c(cc(-c4cccnc4)oc3=O)O[C@]12C | 10 to 20 | > 540 min
35 | CC(=O)O[C@H]1CC[C@@]2(C)[C@@H](C[C@H](OC(=O)c3ccc(C#N)cc3)[C@@]3(C)Oc4cc(-c5cccnc5)oc(=O)c4[C@H](O)[C@H]23)[C@]1(C)COC(=O)c1ccccc1 | 10 to 20 | > 540 min
36 | COc1ccccc1[C@@H]1OC[C@@]2(C)[C@@H]3C[C@H](OC(=O)c4ccc(F)cc4)[C@@]4(C)Oc5cc(-c6cccnc6)oc(=O)c5[C@H](O)[C@@H]4[C@@]3(C)CC[C@@H]2O1 | 10 to 20 | > 540 min
37 | CC(=O)OC[C@@]1(C)[C@@H]2C[C@H](OC(=O)c3ccc(C#N)cc3)[C@@]3(C)Oc4cc(-c5cccnc5)oc(=O)c4[C@H](O)[C@@H]3[C@@]2(C)CC[C@@H]1OC(=O)C(C)C | < 20 | > 540 min
